Data on 20 molecules can be found in patent US11912682B2, “Isoindolinone compounds” (Monte Rosa Therapeutics, Inc., priority 2021, dated 2024).

Sequence of Full length wild-type cereblon CRBN (Q96SW2 whole entry): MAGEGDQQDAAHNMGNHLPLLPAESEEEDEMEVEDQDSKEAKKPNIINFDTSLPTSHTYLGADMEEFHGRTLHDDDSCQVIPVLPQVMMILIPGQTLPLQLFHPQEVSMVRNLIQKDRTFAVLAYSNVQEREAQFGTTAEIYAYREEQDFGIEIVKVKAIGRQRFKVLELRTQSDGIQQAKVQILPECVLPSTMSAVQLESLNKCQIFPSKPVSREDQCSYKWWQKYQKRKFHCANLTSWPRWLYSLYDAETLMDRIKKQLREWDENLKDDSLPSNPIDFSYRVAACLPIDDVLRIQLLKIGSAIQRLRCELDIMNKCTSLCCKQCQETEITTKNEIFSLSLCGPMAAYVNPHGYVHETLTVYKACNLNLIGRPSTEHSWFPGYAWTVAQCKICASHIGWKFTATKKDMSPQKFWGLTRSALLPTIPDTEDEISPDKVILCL
Sequence of GSPT1 (P15170 whole entry): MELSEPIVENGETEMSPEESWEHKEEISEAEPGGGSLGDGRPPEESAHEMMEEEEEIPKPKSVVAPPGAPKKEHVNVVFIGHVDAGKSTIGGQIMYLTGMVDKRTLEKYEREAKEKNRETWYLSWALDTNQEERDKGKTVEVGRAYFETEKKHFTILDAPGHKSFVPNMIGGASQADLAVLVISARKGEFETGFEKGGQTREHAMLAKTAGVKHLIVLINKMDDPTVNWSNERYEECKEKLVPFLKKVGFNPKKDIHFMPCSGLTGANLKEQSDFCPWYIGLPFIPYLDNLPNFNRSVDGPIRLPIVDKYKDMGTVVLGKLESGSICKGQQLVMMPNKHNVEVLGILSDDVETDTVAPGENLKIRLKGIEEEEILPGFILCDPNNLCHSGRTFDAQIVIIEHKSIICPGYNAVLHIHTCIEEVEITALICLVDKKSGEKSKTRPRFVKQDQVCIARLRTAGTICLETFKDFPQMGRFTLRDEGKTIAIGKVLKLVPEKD
Sequence of GSPT1 (Q96SW2 whole entry): as the sequence (Q96SW2 whole entry) above
Sequence of GSPT1 (Q16531 2-1140 partner): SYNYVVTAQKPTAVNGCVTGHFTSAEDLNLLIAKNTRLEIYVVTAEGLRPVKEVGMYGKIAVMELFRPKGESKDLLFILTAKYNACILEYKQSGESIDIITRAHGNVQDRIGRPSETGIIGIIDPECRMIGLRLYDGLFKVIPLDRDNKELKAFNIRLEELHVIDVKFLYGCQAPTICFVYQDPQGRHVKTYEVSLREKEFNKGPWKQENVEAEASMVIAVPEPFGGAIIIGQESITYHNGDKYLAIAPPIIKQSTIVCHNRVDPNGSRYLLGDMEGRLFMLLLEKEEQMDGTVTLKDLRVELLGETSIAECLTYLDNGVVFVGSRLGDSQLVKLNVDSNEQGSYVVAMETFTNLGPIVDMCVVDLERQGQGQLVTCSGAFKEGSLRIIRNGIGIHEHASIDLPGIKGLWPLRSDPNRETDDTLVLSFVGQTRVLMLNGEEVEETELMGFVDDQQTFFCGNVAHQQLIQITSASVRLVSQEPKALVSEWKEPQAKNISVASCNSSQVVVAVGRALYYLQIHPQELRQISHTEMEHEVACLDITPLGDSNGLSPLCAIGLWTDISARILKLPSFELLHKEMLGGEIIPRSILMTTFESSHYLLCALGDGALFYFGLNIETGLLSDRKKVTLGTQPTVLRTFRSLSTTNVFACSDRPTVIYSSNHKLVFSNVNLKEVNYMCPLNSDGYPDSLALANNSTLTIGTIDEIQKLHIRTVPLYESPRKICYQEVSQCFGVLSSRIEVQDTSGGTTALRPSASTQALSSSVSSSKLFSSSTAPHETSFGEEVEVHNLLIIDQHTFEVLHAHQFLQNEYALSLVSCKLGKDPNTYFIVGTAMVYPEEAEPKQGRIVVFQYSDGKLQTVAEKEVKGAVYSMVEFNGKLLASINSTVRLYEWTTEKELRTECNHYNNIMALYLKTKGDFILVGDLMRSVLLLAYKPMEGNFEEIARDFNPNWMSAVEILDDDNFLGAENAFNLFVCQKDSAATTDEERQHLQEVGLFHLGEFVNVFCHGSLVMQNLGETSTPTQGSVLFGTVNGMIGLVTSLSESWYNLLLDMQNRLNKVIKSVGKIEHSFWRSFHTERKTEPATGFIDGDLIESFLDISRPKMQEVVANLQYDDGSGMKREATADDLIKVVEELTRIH

The target in one test is Full length wild-type cereblon CRBN (Homo sapiens (Human), UniProt Q96SW2). Nature of the test: fluorescence polarization (FP) assay, cereblon binding. As to conditions: read-out: IC50 value. From the text:
Compound activity was monitored in a fluorescence polarization (FP) homogeneous assay using 1-[5-({2-[2-(2-{[2-(2,6-dioxopiperidin-3-yl)-1,3-dioxo-2,3-dihydro-1H-isoindol-4-yl]oxy}acetamido)ethoxy]ethyl}carbamoyl)pentyl]-3,3-dimethyl-2-[(1E,3E)-5-[(2E)-1,3,3-trimethyl-5-sulfo-2,3-dihydro-1H-indol-2-ylidene]penta-1,3-dien-1-yl]-3H-indol-1-ium-5-sulfonate as a fluorescent probe. Unless otherwise stated, all reagents were purchased from Sigma Aldrich. […] Full length wild-type cereblon CRBN (80.0 nM, 10 μL) was incubated in assay buffer containing 20 mM HEPES (pH 8.0), […], 0.5 mM TCEP and 0.05% Tween 20 in the presence or absence of compound (300 nL). Inhibitors were stored as 10 mM DMSO stocks in an inert environment (low humidity, dark, low oxygen, room temperature) using the Storage Pod System. […] Following incubation at room temperature for 30 min, the assay was initiated by dispensing the probe to a final concentration of 5 nM (2.5 nL of a 20 μM stock) using the Echo ESXX. […] The FP signal was subsequently normalized to the no-compound control (i.e., DMSO). Analysis and IC50 values were derived using Dotmatics (Dotmatics UK) software.
Regarding `Cc1c(Cl)cc(NC(=O)OCc2ccc3c(c2)C(=O)N(C2CCC(=O)NC2=O)C3)cc1CN1CCOCC1` (centres unmarked) [Compound 2], the IC50 was below 1100 nM.

As for `O=C1CCC(N2Cc3ccc(COC(=O)Nc4cc(CN5CCOCC5)cc(OC(F)(F)F)c4)cc3C2=O)C(=O)N1` (centres unmarked) [Compound 4], the concentration for half-maximal inhibition (IC50) is below 1100 nM.

As to `Cc1cc(NC(=O)OCc2ccc3c(c2)C(=O)N(C2CCC(=O)NC2=O)C3)cc(C)n1` (centres unmarked) [Compound 7], the IC50 was below 1100 nM.

Consider `Cc1cc(C)cc(NC(=O)OCc2ccc3c(c2)C(=O)N(C2CCC(=O)NC2=O)C3)c1` (centres unmarked) [Compound 8], for which the IC50 is below 1100 nM.

In the case of `Cc1c(Cl)cc(NC(=O)OCc2ccc3c(c2)C(=O)N(C2CCC(=O)NC2=O)C3)cc1CN1CC2CC1CO2` (centres unmarked) [Compound 13], the half-inhibitory concentration (IC50) is below 1100 nM.

`O=C1CCC(N2Cc3ccc(COC(=O)Nc4ccc5c(c4)OCC5)cc3C2=O)C(=O)N1` (centres unmarked) [Compound 18]: the concentration for half-maximal inhibition (IC50) is below 1100 nM.

For `Cc1ccc(NC(=O)OCc2ccc3c(c2)C(=O)N(C2CCC(=O)NC2=O)C3)cc1OC(F)F` (centres unmarked) [Compound 24], the IC50 is below 1100 nM.

As for `Cc1c(CN2CCOCC2)cc(NC(=O)OCc2ccc3c(c2)C(=O)N(C2CCC(=O)NC2=O)C3)cc1OC(F)F` (centres unmarked) [Compound 25], the IC50 was below 1100 nM.

For `O=C1CCC(N2Cc3ccc(COC(=O)N4CCCC4)cc3C2=O)C(=O)N1` (centres unmarked) [Compound 26], the IC50 is below 1100 nM.

On to `O=C1CCC(N2Cc3ccc(COC(=O)NC4CCCC4)cc3C2=O)C(=O)N1` (centres unmarked) [Compound 29], for which the IC50 is below 1100 nM.

The same test, now with this note: read-out: rFP IC50.
As to `O=C1CCC(N2Cc3ccc(COC(=O)Nc4cc(Cl)cc(OCC5CCNC5)c4)cc3C2=O)C(=O)N1` (centres unmarked) [Compound 16], the IC50 was below 500 nM.

Take `Cc1ccc(NC(=O)OC(C)c2ccc3c(c2)C(=O)N(C2CCC(=O)NC2=O)C3)cc1Cl` (centres unmarked) [Compound 17]: the half-maximal inhibitory concentration (IC50) was above 1700 nM.

For `O=C1CCC(N2Cc3ccc(COC(=O)Nc4cc(Cl)cc(OC(F)F)c4)cc3C2=O)C(=O)N1` (centres unmarked) [Compound 19], the IC50 was above 1700 nM.

As to `Cc1c(Cl)cc(NC(=O)OCc2ccc3c(c2)C(=O)N(C2CCC(=O)NC2=O)C3)cc1CN1CC2CCC(C1)O2` (centres unmarked) [Compound 21], the IC50 is above 1700 nM.

For the molecule `O=C1CCC(N2Cc3ccc(COC(=O)NCC4CC4)cc3C2=O)C(=O)N1` (centres unmarked) [Compound 22], the IC50 was above 1700 nM.

Turning to `O=C1CCC(N2Cc3ccc(COC(=O)N4CCCCC4)cc3C2=O)C(=O)N1` (centres unmarked) [Compound 23], the half-maximal inhibitory concentration (IC50) was below 500 nM.

In the case of `CC(C)CCNC(=O)OCc1ccc2c(c1)C(=O)N(C1CCC(=O)NC1=O)C2` (centres unmarked) [Compound 27], the IC50 is above 1700 nM.

`O=C1CCC(N2Cc3ccc(COC(=O)N4CCC(Oc5ccccc5)C4)cc3C2=O)C(=O)N1` (centres unmarked) [Compound 30]: the half-inhibitory concentration (IC50) was below 500 nM.

Turning to `O=C1CCC(N2Cc3ccc(COC(=O)Nc4cc(F)cc(OC(F)F)c4)cc3C2=O)C(=O)N1` (centres unmarked) [Compound 31], the IC50 was above 1700 nM.

Take `O=C1CCC(N2Cc3ccc(COC(=O)Nc4ccc(F)c(OC(F)F)c4)cc3C2=O)C(=O)N1` (centres unmarked) [Compound 32]: the IC50 was above 1700 nM.

Another test concerns the target GSPT1 (Homo sapiens (Human), UniProt P15170+Q96SW2). The test can be described thus: immunofluorescence assay for GSPT1 degradation in CAL-51 cells (Example 4). The test is classed as cell-based. The following applies: 6 hours, read-out: Activity for GSPT1 degradation, Code (DC50). On the procedure:
The representative compounds were tested in an immunofluorescence assay for their activity to bind to degrade GSPT1. CAL-51 cells were purchased from DSMZ (cat. Number ACC302), sub-cultured in 90% Dulbecco's MEM (4.5 g/L glucose, Gibco 11965) +10% heat inactivated FBS (BioConcept, 2-01F136I) and incubated at 37° C., 5% CO2. For the assay, imaging microtiterplate Cell Carrier 96 Ultra (Perkin Elmer 6055302) were pre-coated with Fibronectin (Sigma F085, 30 μl at 0.2 μg/ml) in PBS (100 μl, Gibco 14190) for 45 min at room temperature, rinsed with PBS and CAL-51 cells (30 K cells/well) were plated and let to adhere overnight. Cells were treated with compounds typically using a serial dilution ranging from 30 μM to 0.1 nM for 6 hours. Compounds were stored at 10 mM DMSO stocks. Vehicle (DMSO), positive (CC-885, 10 μM) and rescue controls (positive control plus 0.2 μM bortezomib) were also included atthis stage. Cells were subsequently rinsed with PBS and fixed in 10% Formalin solution (50 μl, Sigma HT5011)) for 20 mins at room temperature. Following three consecutive PBS washes (100 μl), cells were permeabilized in 0.1% Triton X-100 in PBS (Sigma 93443, 50 μl) for 15 mins at room temperature. Following three further PBS washes, 50 μl blocking buffer (1% BSA, Sigma A4503, in PBS) was added for 45 min for signal-to-noise reduction.
Primary antibody (human GSPT1, Sigma HPA052488) was diluted in blocking buffer (dil.1/300, 35 μl/well) and incubated with the cells overnight at 4° C. After three PBS washes, Alexa-fluor 488 coupled secondary antibodies (Invitrogen, A32731, dil.1/1000), Alexa-fluor 647-Phalloidin (Invitrogen, A22287, dil.1/200) and DAPI (Thermo, #62248, dil.1/1000) were diluted in blocking buffer and incubated with the samples for 2 hours at room temperature. After three final PBS washes, samples were conserved in 100 μl PBS in the dark, until measurement. Image acquisition was performed on the Operetta High-Content Imager (Perkin-Elmer). Fluorescence intensity of Alexa-Fluor 488 (GSPT1), Alexa-Fluor 647 (Actin) and DAPI (Nucleus) were measured. For the determination of GSPT1 DC50 values, a custom algorithm implemented in the PerkinElmer image analysis software Harmony-Acapella® was developed. After user-defined setting of adjustment parameters, the analysis was run identically without human intervention for all image fields. DAPI staining of the nuclei was used to determine the location of cells using standard nuclei detection modules. Segmentation artifacts were removed by threshold-based filters for area, roundness and intensity. The outline of the cells was determined analogously from the sum of the normalized, smoothed DAPI and Actin channel, starting from each nucleus. The Alexa-Fluor 488 (GSPT1) signal intensity in each cell was finally measured, in order to obtain a Mean intensity per cell. GSPT1 degradation (DC50) was calculated after normalization to controls and data import in CDD vault Database, using non-linear regression.
As for `Cc1c(Cl)cc(NC(=O)OCc2ccc3c(c2)C(=O)N(C2CCC(=O)NC2=O)C3)cc1CN1CCOCC1` (centres unmarked) [Compound 2], the DC50 is below 30 nM.

`O=C1CCC(N2Cc3ccc(COC(=O)Nc4cc(CN5CCOCC5)cc(OC(F)(F)F)c4)cc3C2=O)C(=O)N1` (centres unmarked) [Compound 4]: the DC50 is below 30 nM.

On to `Cc1cc(NC(=O)OCc2ccc3c(c2)C(=O)N(C2CCC(=O)NC2=O)C3)cc(C)n1` (centres unmarked) [Compound 7], for which the DC50 was in the range of 30 to 300 nM.

As to `Cc1cc(C)cc(NC(=O)OCc2ccc3c(c2)C(=O)N(C2CCC(=O)NC2=O)C3)c1` (centres unmarked) [Compound 8], the DC50 is below 30 nM.

Regarding `Cc1c(Cl)cc(NC(=O)OCc2ccc3c(c2)C(=O)N(C2CCC(=O)NC2=O)C3)cc1CN1CC2CC1CO2` (centres unmarked) [Compound 13], the half-maximal degradation concentration (DC50) is below 30 nM.

On to `O=C1CCC(N2Cc3ccc(COC(=O)Nc4cc(Cl)cc(OCC5CCNC5)c4)cc3C2=O)C(=O)N1` (centres unmarked) [Compound 16], for which the half-maximal degradation concentration (DC50) is above 300 nM.

As to `Cc1ccc(NC(=O)OC(C)c2ccc3c(c2)C(=O)N(C2CCC(=O)NC2=O)C3)cc1Cl` (centres unmarked) [Compound 17], the DC50 was above 300 nM.

Turning to `O=C1CCC(N2Cc3ccc(COC(=O)Nc4ccc5c(c4)OCC5)cc3C2=O)C(=O)N1` (centres unmarked) [Compound 18], the DC50 fell in the range of 30 to 300 nM.

With `O=C1CCC(N2Cc3ccc(COC(=O)Nc4cc(Cl)cc(OC(F)F)c4)cc3C2=O)C(=O)N1` (centres unmarked) [Compound 19], the DC50 was 30 to 300 nM.

Turning to `Cc1c(Cl)cc(NC(=O)OCc2ccc3c(c2)C(=O)N(C2CCC(=O)NC2=O)C3)cc1CN1CC2CCC(C1)O2` (centres unmarked) [Compound 21], the DC50 was below 30 nM.

In the case of `O=C1CCC(N2Cc3ccc(COC(=O)NCC4CC4)cc3C2=O)C(=O)N1` (centres unmarked) [Compound 22], the DC50 is above 300 nM.

Turning to `O=C1CCC(N2Cc3ccc(COC(=O)N4CCCCC4)cc3C2=O)C(=O)N1` (centres unmarked) [Compound 23], the DC50 is above 300 nM.

On to `Cc1ccc(NC(=O)OCc2ccc3c(c2)C(=O)N(C2CCC(=O)NC2=O)C3)cc1OC(F)F` (centres unmarked) [Compound 24], for which the DC50 was below 30 nM.

In the case of `Cc1c(CN2CCOCC2)cc(NC(=O)OCc2ccc3c(c2)C(=O)N(C2CCC(=O)NC2=O)C3)cc1OC(F)F` (centres unmarked) [Compound 25], the half-maximal degradation concentration (DC50) was below 30 nM.

Take `O=C1CCC(N2Cc3ccc(COC(=O)N4CCCC4)cc3C2=O)C(=O)N1` (centres unmarked) [Compound 26]: the DC50 was above 300 nM.

For the molecule `CC(C)CCNC(=O)OCc1ccc2c(c1)C(=O)N(C1CCC(=O)NC1=O)C2` (centres unmarked) [Compound 27], the DC50 is above 300 nM.

In the case of `O=C1CCC(N2Cc3ccc(COC(=O)NC4CCCC4)cc3C2=O)C(=O)N1` (centres unmarked) [Compound 29], the 50% degradation concentration (DC50) was above 300 nM.

Consider `O=C1CCC(N2Cc3ccc(COC(=O)N4CCC(Oc5ccccc5)C4)cc3C2=O)C(=O)N1` (centres unmarked) [Compound 30], for which the DC50 is above 300 nM.

Consider `O=C1CCC(N2Cc3ccc(COC(=O)Nc4cc(F)cc(OC(F)F)c4)cc3C2=O)C(=O)N1` (centres unmarked) [Compound 31], for which the DC50 lay in the range of 30 to 300 nM.

Turning to `O=C1CCC(N2Cc3ccc(COC(=O)Nc4ccc(F)c(OC(F)F)c4)cc3C2=O)C(=O)N1` (centres unmarked) [Compound 32], the 50% degradation concentration (DC50) lay within 30 to 300 nM.

Still in this test, the particulars now being: GSPT1 degradation, read-out: DC50 value.
As for `Cc1c(Cl)cc(NC(=O)OCc2ccc3c(c2)C(=O)N(C2CCC(=O)NC2=O)C3)cc1CN1CCOCC1` (centres unmarked) [Compound 2], the DC50 is at most 30 nM.

On to `O=C1CCC(N2Cc3ccc(COC(=O)Nc4cc(CN5CCOCC5)cc(OC(F)(F)F)c4)cc3C2=O)C(=O)N1` (centres unmarked) [Compound 4], for which the 50% degradation concentration (DC50) is at most 30 nM.

In the case of `Cc1cc(C)cc(NC(=O)OCc2ccc3c(c2)C(=O)N(C2CCC(=O)NC2=O)C3)c1` (centres unmarked) [Compound 8], the half-maximal degradation concentration (DC50) is at most 30 nM.

For `Cc1c(Cl)cc(NC(=O)OCc2ccc3c(c2)C(=O)N(C2CCC(=O)NC2=O)C3)cc1CN1CC2CC1CO2` (centres unmarked) [Compound 13], the half-maximal degradation concentration (DC50) is at most 30 nM.

Turning to `Cc1c(Cl)cc(NC(=O)OCc2ccc3c(c2)C(=O)N(C2CCC(=O)NC2=O)C3)cc1CN1CC2CCC(C1)O2` (centres unmarked) [Compound 21], the DC50 is at most 30 nM.

`Cc1ccc(NC(=O)OCc2ccc3c(c2)C(=O)N(C2CCC(=O)NC2=O)C3)cc1OC(F)F` (centres unmarked) [Compound 24]: the DC50 is at most 30 nM.

Regarding `Cc1c(CN2CCOCC2)cc(NC(=O)OCc2ccc3c(c2)C(=O)N(C2CCC(=O)NC2=O)C3)cc1OC(F)F` (centres unmarked) [Compound 25], the 50% degradation concentration (DC50) is at most 30 nM.
